The target of assay [1] is T1, Human recombinant CD45 (Homo sapiens, UniProt P08575).
T1 construct: purchased Sigma-Aldrich
T1 sequence (P08575 609-1306 limits assumed): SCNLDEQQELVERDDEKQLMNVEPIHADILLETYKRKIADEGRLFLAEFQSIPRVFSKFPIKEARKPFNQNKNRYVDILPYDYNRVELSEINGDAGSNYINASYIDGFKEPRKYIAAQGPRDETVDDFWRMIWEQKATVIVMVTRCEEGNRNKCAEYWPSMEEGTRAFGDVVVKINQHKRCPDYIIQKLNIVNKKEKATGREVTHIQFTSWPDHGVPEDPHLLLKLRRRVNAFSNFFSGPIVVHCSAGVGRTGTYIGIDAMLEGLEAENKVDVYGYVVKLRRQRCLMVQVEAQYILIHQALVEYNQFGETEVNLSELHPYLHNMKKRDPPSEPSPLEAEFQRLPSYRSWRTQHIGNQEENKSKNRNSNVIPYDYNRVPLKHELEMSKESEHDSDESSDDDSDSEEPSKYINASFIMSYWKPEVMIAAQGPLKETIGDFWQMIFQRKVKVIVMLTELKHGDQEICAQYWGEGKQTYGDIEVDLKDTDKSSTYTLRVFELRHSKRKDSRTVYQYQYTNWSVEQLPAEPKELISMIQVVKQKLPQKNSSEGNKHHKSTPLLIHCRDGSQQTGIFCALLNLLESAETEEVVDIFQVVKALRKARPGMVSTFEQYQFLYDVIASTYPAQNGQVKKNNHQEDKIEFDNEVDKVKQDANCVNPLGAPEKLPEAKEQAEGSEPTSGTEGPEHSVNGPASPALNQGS
As to the kind of experiment: biochemical.

Assay [2] addresses YopH from Yersinia enterocolitica (Yersinia enterocolitica, UniProt P15273). Briefly: biochemical.
The target of assay [3] is YopH protein tyrosine phosphatase from Yersinia pestis (Yersinia pestis, UniProt O68720). As to the kind of experiment: biochemical.
Assay [4] deals with YopH Y. enterocolitica (Yersinia enterocolitica, UniProt P15273). Type of assay: biochemical.
In assay [5] the target is T2, YopH (Yersinia enterocolitica, UniProt P15273). Type of assay: biochemical.
The target in assay [6] is T2, YopH. Type of assay: biochemical. The source holds these as a separate data set.

The results in this text go back to paper PMC4621896 (Oncotarget, 2015).

Structures are written as SMILES. Where two headings read alike, the source gives them in different places.

T2 sequence (P15273 whole entry, looked up): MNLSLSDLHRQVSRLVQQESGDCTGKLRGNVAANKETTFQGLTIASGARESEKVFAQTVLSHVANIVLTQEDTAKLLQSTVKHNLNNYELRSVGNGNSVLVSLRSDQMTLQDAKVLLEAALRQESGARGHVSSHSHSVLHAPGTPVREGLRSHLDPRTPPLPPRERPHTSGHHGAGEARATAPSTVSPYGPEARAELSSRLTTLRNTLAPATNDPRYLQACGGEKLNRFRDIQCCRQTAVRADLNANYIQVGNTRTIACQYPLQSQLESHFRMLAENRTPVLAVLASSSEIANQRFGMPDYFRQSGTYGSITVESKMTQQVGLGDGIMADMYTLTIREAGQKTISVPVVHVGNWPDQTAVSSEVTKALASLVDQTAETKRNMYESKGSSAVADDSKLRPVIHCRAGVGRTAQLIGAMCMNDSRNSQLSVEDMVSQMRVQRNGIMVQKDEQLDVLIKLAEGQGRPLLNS
YopH from Yersinia enterocolitica, sequence (P15273 whole entry, looked up): as above
YopH protein tyrosine phosphatase from Yersinia pestis, sequence (O68720 1-468): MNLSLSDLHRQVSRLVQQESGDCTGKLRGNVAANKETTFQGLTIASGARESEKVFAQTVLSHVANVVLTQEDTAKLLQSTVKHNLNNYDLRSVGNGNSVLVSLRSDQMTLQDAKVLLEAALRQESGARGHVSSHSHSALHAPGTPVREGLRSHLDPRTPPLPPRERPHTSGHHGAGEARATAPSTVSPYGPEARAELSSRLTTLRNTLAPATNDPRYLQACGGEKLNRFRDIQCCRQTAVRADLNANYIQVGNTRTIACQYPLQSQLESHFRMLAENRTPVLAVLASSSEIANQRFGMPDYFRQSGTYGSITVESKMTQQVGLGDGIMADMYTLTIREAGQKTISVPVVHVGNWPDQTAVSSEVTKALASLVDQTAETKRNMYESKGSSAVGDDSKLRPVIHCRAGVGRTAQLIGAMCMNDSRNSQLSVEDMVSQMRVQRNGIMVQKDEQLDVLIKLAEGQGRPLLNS
YopH Y. enterocolitica, sequence (P15273 whole entry, looked up): as the sequence (P15273 whole entry, looked up) above

For `O=C(O)C1=CC(=C(c2ccc(O)c(C(=O)O)c2)c2ccc(O)c(C(=O)O)c2)C=CC1=O` [ATA, aurintricarboxylic acid], in assay [1], the “Effect of catalase pretreatment on ATA induced CD45 inactivation” value was “almost completely protected” and the IC50 (as a rule, the concentration that inhibits the measured activity by half) stood at 200 nM. In addition, the IC50 in assay [2] stood at 100 nM. The same compound displayed an IC50 in assay [3] of 10 nM. In assay [4], the “Reversibility of ATA induced inhibition of YopH” value is on record as “completely reversed”. The “Effect of catalase pretreatment on ATA induced YopH inactivation” value in assay [5] is recorded as “almost completely protected”. Also, in assay [6], the “Effect of catalase on ATA induced decrease of thiol adducts” value is given as “completely prevented” and the “Reduction of thiol-NBD adducts compared to control” value is “over 50%”.
Consider `CCCCCCCC(=O)OO` [peroctanoic acid], for which the IC50 came out at 25 nM in assay [1] (read-out: IC50 value, CD45 inhibition); 39 nM in assay [2] (read-out: IC50 value, YopH Y.entorocolitica inhibition); 41 nM in assay [3] (read-out: IC50 value, YopH Y.pestis inhibition).
